In general, Ki refers to a measure of affinity in units of concentration, obtained from inhibition or displacement. Usually melting point stands for the temperature of the solid-liquid transition.

The source of these data is patent US20030114375A1, “Method for treating cystic fibrosis” (The Government of the USA, Dept of Health and Human …, priority 1994, published 2003).

Entries after “also recorded” stand apart in the source; their conditions may differ. Like-named read-outs stand apart in the source and are kept apart here. Bounds are passed on as bounds.

For one data set, the system named is CFPAC cells. Briefly: [36Cl]- efflux from CFPAC cells. The conditions noted are these: for % control: chloride efflux at maximum impact relative to control: at Conc. max.; for % control: chloride efflux at minimum detection relative to control: at threshold concentration; for Efflux rate as compared to control (FIGS. 9-12): read from the graphs.
The target of the next data set is T1, A1-adenosine receptor (Rattus norvegicus, UniProt P25099).
T1 construct: Rat cerebral cortical membranes and striatal membranes were prepared; from tissue; host or cells: rat cerebral cortex membranes
T1 sequence (P25099 1-326): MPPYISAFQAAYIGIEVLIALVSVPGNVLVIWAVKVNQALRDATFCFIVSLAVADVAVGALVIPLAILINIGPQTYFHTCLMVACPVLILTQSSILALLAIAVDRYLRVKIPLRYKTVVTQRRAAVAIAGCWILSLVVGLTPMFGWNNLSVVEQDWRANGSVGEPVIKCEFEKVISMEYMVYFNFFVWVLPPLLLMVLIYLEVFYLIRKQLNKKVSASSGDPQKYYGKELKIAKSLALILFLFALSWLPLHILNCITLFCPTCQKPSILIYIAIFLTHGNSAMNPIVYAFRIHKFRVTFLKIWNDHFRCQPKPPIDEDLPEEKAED
Briefly: Inhibition of [3H]N6-phenylisopropyladenosine binding to A1 receptors. How it is done: (§1) Solid samples of the adenosine derivatives were dissolved in dimethyl sulfoxide (DMSO) and stored in the art at. −20° C. The stock solutions were diluted with DMSO to a concentration of ≦0.1 mM prior to addition to the aqueous medium. The final concentration of DMSO in the assay medium was generally 2%.
Inhibition of binding of 1 nM [^3H]N^6-phenylisopropyladenosine (Dupont NEN, Boston, Mass.) to A1 receptors in rat cerebral cortex membranes was measured as described in Schwabe et al., Naunyn-Schmiedeberg's Arch. […] Membranes (^˜100 μg protein per tube) were incubated for 1.5 hours at 37° C. in a total volume of 0.5 ml of 50 mM tris hydrochloride at pH 7.4. Test drugs were dissolved in DMSO and added in 10 μl aliquots, resulting in a final DMSO concentration of 2%. Bound and free radioligand were separated by addition of 3 ml of a buffer containing 50 mM tris hydrochloride, at pH 7.4 at 5° C., followed by vacuum filtration using a Brandel Cell Harvester (Brandel, Gaithersburg, Md.) and a Whatman GF/B glass fiber filter with additional washes totaling 9 ml of buffer. Non-specific binding was determined with 10 μM 2-chloroadenosine.
(§2) At least six different concentrations spanning three orders of magnitude, adjusted appropriately for the IC50 of each compound, were used.

Another data set addresses T2, A2a-adenosine receptor (Rattus norvegicus, UniProt P30543).
T2 construct: Rat cerebral cortical membranes and striatal membranes were prepared; from tissue; host or cells: rat striatal membranes
Briefly: Inhibition of [3H]CGS 21680 binding to A2a receptors. The conditions noted are these: for Ki: rat striatal membranes, 5 nM [3H]CGS 21680, read-out: Ki, μM(A2). How it is done: as §1
Membranes (^˜80 μg protein per tube) were incubated for one hour at 25° C. in a total volume of 0.5 ml of a buffer solution consisting of […] tris hydrochloride and 10 mM MgCl2 at pH 7.4. Test drugs were dissolved in DMSO and added in 10 μl aliquots, resulting in a final DMSO concentration of 2%. Non-specific binding was defined using 20 μM 2-chloroadenosine. Filtration was carried out using a Brandel Cell Harvester, as above, using the tris.HCl/MgCl2 buffer recited hereinabove as the washing buffer.
as §2

In data set [1] the test system is bovine chromaffin granules. Briefly: Chromaffin granule aggregation assay. The class given is biochemical. The conditions noted are these: for Aggregation of chromaffin granules: 1 mM CaCl2, 20 μg/ml polypeptide. How it is done:
Chromaffin granule aggregation assay: Adrenal glands were obtained from a local abattoir and transported to the laboratory on ice within 2 hours of slaughter. Tissue was processed as described in Brocklehurst et al. in Polypeptide Hormones: A Practical Approach (Oxford Univ. Press, K. Siddle and J. Hutton, eds., 1990) at pp. 237-255. Chromaffin granules were purified on a step gradient of metrizamide using standard procedures. After resuspension, the granule aggregation assay was performed as described (Brocklehurst et al., supra), and the synexin activity was assessed from the initial rate of optical density increase at 540 nm. Briefly, the assay was carried out at room temperature in a 1 ml quartz cuvette containing the chromaffin granule suspension in 0.3 mol/l sucrose, 40 mmol/l histidine buffer, pH 6.0, synexin and variable amounts of calcium chloride.

Where [2] appears, read: rat cerebral cortex membranes, 1 nM [3H]PIA, read-out: Ki, μM(A1).

T2 sequence (P30543 whole entry): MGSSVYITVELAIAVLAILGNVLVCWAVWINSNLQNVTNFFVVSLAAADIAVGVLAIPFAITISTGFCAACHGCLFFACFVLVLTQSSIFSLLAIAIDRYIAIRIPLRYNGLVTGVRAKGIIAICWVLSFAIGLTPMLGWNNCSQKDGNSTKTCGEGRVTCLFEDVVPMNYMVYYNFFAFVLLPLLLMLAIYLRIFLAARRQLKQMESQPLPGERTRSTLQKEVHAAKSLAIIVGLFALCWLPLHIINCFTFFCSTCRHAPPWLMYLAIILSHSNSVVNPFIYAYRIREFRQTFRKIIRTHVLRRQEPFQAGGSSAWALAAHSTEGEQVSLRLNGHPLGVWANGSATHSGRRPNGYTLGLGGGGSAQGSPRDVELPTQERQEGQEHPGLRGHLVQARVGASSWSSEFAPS

As for `Cn1c(=O)c2c(nc(C3CCCCC3)n2C)n(C)c1=O` [Compound 14, 8-cyclohexyl caffeine], in the data set on CFPAC cells, the “Chloride efflux stimulation (summary words)” value (shortened to “Chloride efflux stimulation”) was “stimulate chloride efflux at μM or lesser concentrations; also recorded: substantial efflux activity at low concentration ranges” and the “thresh (nM): minimum concentration required to detect an effect upon chloride efflux” value (“thresh (nM)” below) is 3 nM.
Turning to `CCCn1c(=O)c2c(nc(C3CCCCC3)n2C)n(CCC)c1=O` [Compound 19, 1,3-dipropyl-7-methyl-8-cyclohexylxanthine], at A1-adenosine receptor (setting [2]), the Ki was 2.7 µM. In the data set on CFPAC cells, the “Chloride efflux stimulation” value is “stimulate chloride efflux at μM or lesser concentrations; also recorded: substantial efflux activity at low concentration ranges”, the “Conc. max. (nM): concentration at maximum impact upon chloride efflux” value (shortened to “Conc. max. (nM): concentration”) is reported as 5 nM, the “thresh (nM)” value is reported as 5 nM and the “% control: chloride efflux at maximum impact relative to control” value turned out to be 170 ± 50%. In the data set with CFPAC cells, the “% control: chloride efflux at minimum detection relative to control” value worked out at 170 ± 50%. The Ki on A2a-adenosine receptor was 9.24 ± 0.37 µM.
For the molecule `CCCn1c(=O)c2[nH]c(C3C=CCC3)nc2n(CCC)c1=O` (stereo not drawn) [Compound 11], the Ki was 0.045 µM on A1-adenosine receptor (setting [2]) and 0.64 ± 0.061 µM on A2a-adenosine receptor. The “Conc. max. (nM): concentration” value with CFPAC cells is given as >>300 nM.
Turning to `CCCn1c(=O)c2[nH]c(C3CCC(F)C3)nc2n(CCC)c1=O` (stereo not drawn) [Compound 9], the Ki on A1-adenosine receptor (setting [2]) was 0.042 µM. The “Conc. max. (nM): concentration” value with CFPAC cells is >>300 nM.
Turning to `Cn1c(=O)c2c(nc(C3CCCCC3)n2CC2CC2)n(C)c1=O` (hydrate or solvate) [Compound 16], the melting point is > 120 °C.
For the molecule `CCCn1c(=O)c2[nH]c(C3CCC(I)C3)nc2n(CCC)c1=O` (stereo not drawn) [Compound 10], the Ki at A1-adenosine receptor (setting [2]) is 0.058 µM. Further, the “Conc. max. (nM): concentration” value with CFPAC cells is >>300 nM.
`Cn1c(=O)c2c(ncn2C)n(C)c1=O` [Compound 2, 1,3,7-trimethylxanthine, reference compound]: in the data set with CFPAC cells, the “Conc. max. (nM): concentration” value stood at 10 nM and the “thresh (nM)” value amounted to 1 nM.
For the molecule “Iβ: CFTR polypeptide, positions 509 to 539, NH2-GVSYDEYRYRSVIKACQLEEDISKFAEKDNI-COOH”, the “Aggregation of chromaffin granules” value in data set [1] is “essentially inactive”.
Turning to `CCn1c(C2CCCCC2)nc2c1c(=O)n(C)c(=O)n2C` [Compound 15], the values for the inhibitory constant (Ki) on A1-adenosine receptor (setting [2]) and on A2a-adenosine receptor were 6.66 ± 0.99 µM and 3.23 ± 0.36 µM, respectively. In addition, in the data set with CFPAC cells, the “Conc. max. (nM): concentration” value is >>10^4 nM.
On to `CCCn1c(=O)c2[nH]c(C3CCCCC3)nc2n(CCC)c1=O` [Compound 18], for which the “Conc. max. (nM): concentration” value in the data set on CFPAC cells is listed as >>10^4 nM.
Regarding `Cn1c(=O)c2[nH]c(CC3CCCCC3)nc2n(C)c1=O` [Compound 21], the melting point fell in the range of 236 to 238 °C. The Ki on A1-adenosine receptor (setting [2]) is 0.61 ± 0.076 µM. Also, in the data set on CFPAC cells, the “Conc. max. (nM): concentration” value is >>10^4 nM. For the same molecule, the Ki on A2a-adenosine receptor was 5.47 ± 0.86 µM.
For the molecule `CCCn1c(=O)c2c(nc(C3CCCC3)n2C)n(CCC)c1=O` [Compound 6, 1,3-dipropyl-7-methyl-8-cyclopentylxanthine], on A1-adenosine receptor, the “Affinity for A1 receptor” value is listed as “low affinity”. Moreover, the Ki on A1-adenosine receptor (setting [2]) came to 2.3 µM. In addition, in the data set on CFPAC cells, the “Chloride efflux stimulation” value is reported as “stimulate chloride efflux at μM or lesser concentrations; also recorded: substantial efflux activity at low concentration ranges”, the “Conc. max. (nM): concentration” value worked out at 1000 nM, the “thresh (nM)” value is listed as 30 nM and the “% control: chloride efflux at maximum impact relative to control” value is given as 180 ± 40%. For the same molecule, the “% control: chloride efflux at minimum detection relative to control” value in the data set on CFPAC cells is reported as 125 ± 30%. Besides, at A2a-adenosine receptor, the “Affinity for A2 receptor” value is reported as “low affinity” and the Ki was 11.4 ± 1.4 µM.
Turning to “Io: CFTR polypeptide, positions 500 to 530, NH2-GTIKENEEFGVSYDEYRYRSVIKACQLEEDIS-COOH”, the “Aggregation of chromaffin granules” value in data set [1] was “inactive”.
As for `CCn1c(C2CCCCC2)nc2c1c(=O)n(C)c(=O)n2C` (hydrate or solvate) [Compound 15], the melting point was > 170 °C.
Take `Cn1c(=O)c2c(nc(CC3CCCCC3)n2C)n(C)c1=O` [Compound 22, 8-cyclohexylmethyl caffeine]: at A1-adenosine receptor (setting [2]), the Ki was 3.71 ± 0.36 µM. In the data set with CFPAC cells, the “Conc. max. (nM): concentration” value is recorded as >>10^4 nM and the “Efflux rate as compared to control (FIGS. 9-12)” value is reported as 200%. Moreover, the Ki on A2a-adenosine receptor is 5.46 ± 0.47 µM.
`CCCn1c(=O)c2[nH]c(-c3ccc(OCC(=O)NCCN)cc3)nc2n(CCC)c1=O` [Compound 26, reference compound]: the “Conc. max. (nM): concentration” value in the data set on CFPAC cells is recorded as >>10^4 nM.
`Cn1c(=O)c2[nH]c(C3CCCCCC3)nc2n(C)c1=O` [Compound 23] displayed a melting point of 223 to 225 °C. The Ki at A1-adenosine receptor (setting [2]) amounted to 0.0659 ± 0.0145 µM. The “Conc. max. (nM): concentration” value in the data set on CFPAC cells is listed as >>10^4 nM. On A2a-adenosine receptor, the Ki turned out to be 1.05 ± 0.19 µM.
On to `Cn1c(=O)c2c(nc(C3CCCCCC3)n2C)n(C)c1=O` [Compound 24], for which the Ki on A1-adenosine receptor (setting [2]) worked out at 19.5 ± 2.5 µM; on A2a-adenosine receptor it was 3.27 ± 0.98 µM. Moreover, the “Conc. max. (nM): concentration” value with CFPAC cells is >>10^4 nM. Moreover, the “A2a affinity (fold)” value on A2a-adenosine receptor (A2a versus A1) stood at 6 fold.
Consider `Cn1c(=O)c2c(nc(C=Cc3cccc(Cl)c3)n2C)n(C)c1=O` [Compound 25, reference compound], for which, in the data set with CFPAC cells, the “Chloride efflux stimulation” value is “stimulate chloride efflux at μM or lesser concentrations”, the “Conc. max. (nM): concentration” value came to 30 nM and the “thresh (nM)” value is 30 nM.
As to `Cn1c(=O)c2c(nc(C3CCCCC3)n2CC2CC2)n(C)c1=O` [Compound 16], the Ki on A1-adenosine receptor (setting [2]) was found to be 8.23 ± 1.62 µM; at A2a-adenosine receptor, 4.53 ± 1.37 µM. In the data set on CFPAC cells, the “Conc. max. (nM): concentration” value was >>10^4 nM.
With “CFTR polypeptide, amino acid positions 477 to 508, NH2-PSEGKIKHSGRISFCSQFSWIMPGTIKENEEF-COOH [Iα]”, in data set [1], the “Aggregation of chromaffin granules” value is “drive aggregation”. The “k1/2,app of chromaffin granule aggregation” value in data set [1] (1 mM CaCl2, pH 6.0) was found to be 22.2 µg/mL. In data set [1] (1 mM CaCl2, pH 6.0, read-out: k1/2,app of chromaffin granule aggregation), the EC50 was 6.3 µM.
As for `C=CCn1c(=O)c2[nH]c(C3CCCCC3)nc2n(CC=C)c1=O` [Compound 17], the Ki at A1-adenosine receptor (read-out: Ki for A1 receptors (unit inferred)) was ~0.07 µM. In the data set on CFPAC cells, the “Conc. max. (nM): concentration” value is reported as 10^3 nM, the “thresh (nM)” value was determined as 30 nM and the “Efflux rate as compared to control (FIGS. 9-12)” value is > 100%. For the same molecule, the Ki at A2a-adenosine receptor came to 4.94 ± 0.68 µM.
As to `CCn1cnc2c(NC3CCCC3)ncnc21` [Compound 27, 9-ethyl-6-cyclopenyladenine, reference compound], the Ki on A1-adenosine receptor (setting [2]) amounted to 0.44 µM; at A2a-adenosine receptor, 17 µM. In addition, the “Conc. max. (nM): concentration” value in the data set with CFPAC cells is >>10^4 nM.
